Patent US20080182894A1, “METHOD OF PROVIDING PREPARATION FOR TOPICAL APPLICATION AND SUPPLEMENT MEETING CLIENT'S NEEDS” (AJINOMOTO CO., INC., priority 2005, published 2008)
“Also recorded” adds a separate entry of the source.

What was measured:
[1] = tested on: hairless mouse (HR-1, female); assay: Increase in topical concentration of systemically administered trypan blue dye by topical capsiate; assay type: in vivo
Procedure: A hairless mouse (HR-1, female) was intraperitoneally injected with a trypan blue solution (0.4%, 300 μl). After injection, 100 μl of 5% capsiate (dissolved in an ethanol solution) was applied uniformly using a pipet chip to the right side of the back. As a control, 100 μl of ethanol alone was uniformly applied to the left side of the back by a similar method.

[2] = tested on: hairless mouse (HR-1, female); assay: Vasodilating (blood circulation improving) effect, red spot on auricles, visual evaluation; assay type: in vivo; details: for blood circulation promoting action, intensity and sustainability (conclusion): auricle red spot test, 1 wt % and 5 wt %
Description: The vasodilating effects (blood circulation improving effect) of capsiate and capsaicin were compared using auricles of a hairless mouse. A sample was applied to the right ear of a hairless mouse (HR-1, female) and a control was applied to the left ear thereof, and the development of a red spot was visually evaluated. (1) Capsiate (1 wt % or 5 wt % dissolved in liquid paraffin) (2) Capsaicin (1 wt % or 5 wt % dispersed in liquid paraffin Liquid paraffin

hairless mouse [3] = assay: Inhibition of UVB-induced pigmentation: oral tocopherol acetate plus transdermal dihydrocapsiate; assay type: in vivo
Procedure: The synergistic effect of tocopherol acetate and dihydrocapsiate was confirmed using a pigmentation induction mouse based on the inhibition of pigmentation induced by ultraviolet beam (UVB).
(1) Before the start of ultraviolet beam (UVB) irradiation, tocopherol acetate (200 μl) as administered orally once a day for 3 days to a hairless mouse (12-week-old, female) using a gavage needle.
(2) After the 3-day oral administration in (1), the hairless mouse was irradiated with UVB (80-90 mJ/cm^2).
(3) Thirty minutes after the irradiation in (2), tocopherol acetate (200 μl) was administered orally to the hairless mouse using a gavage needle. Five minutes after the oral administration, 28 μl of 5 wt % dihydrocapsiate dissolved in 50 wt % ethyl alcohol was applied to the hairless mouse on the left side of the back.
Treatments (2) and (3) were performed 3 times a week (Monday, Wednesday and Friday) and treatment (3) alone was performed twice a week (Tuesday and Thursday). The skin on the back of the mouse after about 3 weeks from the start of the UV irradiation was visually evaluated.

hairless mouse [4] = assay: Inhibition of UVB-induced pigmentation: oral cystine plus transdermal dihydrocapsiate; assay type: in vivo; details: 5% dihydrocapsiate (50% aqueous ethanol) applied plus oral cystine 50 mg in 150 μl 0.5% CMC; about 3 and about 4 weeks; vs 50% aqueous ethanol application group
Procedure: An experiment similar to that in Example 2 was performed using cystine as an oral agent. In particular, 50 mg of cystine was dissolved in 150 μl of a 0.5% aqueous CMC (carboxymethylcellulose) solution and used as an oral administration sample, and 5% dihydrocapsiate (50% aqueous ethanol solution) was used as a dermal application sample. Ultraviolet beam (UVB) was utilized as an irradiation source without preliminary administration, and the synergistic effect afforded by the oral administration agent and the blood circulation promoter on the blackness suppressive effect on the pigmentation of the back of a mouse was confirmed according to the experiment schedule similar to that in Example 2.
Suppression of pigmentation induction in the dihydrocapsiate application group was visually evaluated.
Visual evaluation criteria • 0: No pigmentation • 1: Spots of pale pigmentation found in a part • 2: Spots of pale pigmentation found on the entire back • 3: Spots of pigmentation found on the entire back (partly deep pigmentation was found) • 4: Spots of deep pigmentation found on the entire back • 5: Deep pigmentation found on the entire back

[5] = Dissolution of sample in liquid paraffin; assay type: physicochemical; details: 1 wt % and 5 wt %; evaluated in a dispersion state
[6] = 1 wt % in liquid paraffin, right ear, control liquid paraffin on left ear
[7] = 5 wt % in liquid paraffin, from 30 min onward after application

COc1cc(COC(=O)CCCC/C=C/C(C)C)ccc1O [capsiate]
pigmentation of blue dye in the vicinity of the auricle ([1]; 5% capsiate in ethanol applied to auricle, trypan blue i.p., 30-60 minutes after application): pigmentation of a blue dye was observed | skin pigmentation (infiltration) of blue dye at application site ([1]; 100 μl of 5% capsiate in ethanol on back, trypan blue i.p., 30 minutes after application): clear skin pigmentation (infiltration) of the blue dye was observed | skin pigmentation of blue dye derived from trypan blue at application site ([1]; 100 μl of 5% capsiate in ethanol on right side of back vs ethanol alone on left, trypan blue 0.4% 300 μl i.p., 15-20 minutes after application): confirmed only on the capsiate application side | development of a red spot on auricle, visual evaluation [2, 6]: no development of a red spot | development of a red spot on auricle, visual evaluation [2, 7]: clear red spot | blood circulation promoting action, intensity and sustainability (conclusion) [2]: mild sustainability and intensity | time until developed red spot completely disappeared ([2]; capsiate in liquid paraffin, auricle): about 2 hr

COc1cc(COC(=O)CCCCCCC(C)C)ccc1O [dihydrocapsiate]
UVB-induced pigmentation of back skin, visual evaluation, combined use (hairless mouse [3]; 28 μl of 5 wt % dihydrocapsiate on left side of back plus oral tocopherol acetate 200 μl, UVB 80-90 mJ/cm^2, about 3 weeks, vs non-application right side): less pigmentation; also recorded: can suppress induction of pigmentation by UVB | UVB-induced pigmentation of back skin, visual evaluation, dihydrocapsiate alone (hairless mouse [3]; dihydrocapsiate applied alone, no oral tocopherol acetate, UVB irradiation): UVB irradiation induced pigmentation in the application site; also recorded: failed to suppress induction of pigmentation | pigmentation suppressive effect after treatment is ceased (hairless mouse [3]; tocopherol acetate administration and dihydrocapsiate application ceased, UVB irradiation continued, dihydrocapsiate application site): disappears and induction of pigmentation begins | UVB-induced pigmentation induction, visual evaluation (score 0-5, FIG. 9) (hairless mouse [4]): clearly suppressed

COc1cc(CNC(=O)CCCC/C=C/C(C)C)ccc1O [capsaicin, reference compound]
development of a red spot on auricle, visual evaluation [2, 6]: presence of a red spot | development of a red spot on auricle, visual evaluation [2, 7]: clear red spot | blood circulation promoting action, intensity and sustainability (conclusion) [2]: strong blood circulation promoting action and long sustainability | time over which red spot maintained the initial state ([2]; capsaicin, even at 1 wt %, auricle): > 2 h | dissolution in liquid paraffin [5]: did not dissolve completely

CC(=O)Oc1c(C)c(C)c2c(c1C)CCC(C)(CCC[C@H](C)CCC[C@H](C)CCCC(C)C)O2 (some centres unmarked) [tocopherol acetate, reference compound]
UVB-induced pigmentation of back skin, visual evaluation, tocopherol only control (hairless mouse [3]; oral tocopherol acetate 200 μl, solvent (50 wt % ethyl alcohol) applied instead of dihydrocapsiate, right vs left side of back): a clear difference was not observed; also recorded: failed to suppress induction of pigmentation
